{
  "source": "patent US12344620B2",
  "about": "“BRD4 inhibitor compound in solid form and preparation method therefor and use thereof” (CSPC ZHONGQI PHARMACEUTICAL TECHNOLOGY (SHIJIAZHUANG) CO., …, priority 2019, dated 2025)",
  "key": {"[1]": {"experiment": "In vivo pharmacokinetics test in rat", "conditions": "plasma, male SD rats, crystalline form A used; for AUC(0-inf): read-out: Area under curve (0-inf) AUC0-inf; for AUC(0-t): read-out: Area under curve (0-t) AUC0-last; for half-life: read-out: Half life T1/2 (converted)", "experimental": "Male SD rats were used as test animals. The compound of formula (I) was administrated intravenously and intragastrically to rats, and then the drug concentrations in the plasma at different time points were determined by the LC/MS/MS method. The in vivo pharmacokinetic behavior of the compound of formula (I) in rats was studied, and its pharmacokinetic characteristics were evaluated.\n1.1 Experiment Drug: The Compound of Formula (I) (the Crystalline Form A)\n4 healthy adult male SD rats were divided into 2 groups according to the similar weight principle, with 2 rats in each group. The animals were commercially available from Beijing Weitonglihua Laboratory Animals Ltd., animal production license number: SCXK (Beijing) 2016-0006.\nAn appropriate amount of the sample was taken, 5% final volume of DMSO was added, and then 95% final volume of 20% HP-β-CD was added. The mixture was ultrasonically stirred to obtain a 0.5 mg/mL clear solution. After filtration, it was used for the intravenous administration.\nAn appropriate amount of the sample was taken, and dissolved in a 0.5% sodium carboxymethyl cellulose solution. The mixture was ultrasonically stirred to obtain a 1 mg/mL homogeneous suspension, which was used for the intragastric administration.\nFour male SD rats were divided into two groups. After fasting overnight, the first group was administered intravenously with the administration volume of 4 mL/kg and the dosage of 2 mg/kg. The second group was administered intragastrically with the administration volume of 10 mL/kg and the dosage of 10 mg/kg.\nAfter the male SD rats were intravenously administrated, 100 μL of blood was taken at each time point of 0.0833, 0.25, 0.5, 1, 2, 4, 6, 8 and 24 hours, and placed in test tubes containing 2 μL of EDTA-K2; and after the SD rats were intragastrically administrated, 100 μL of blood was taken at each time point of 0.0833, 0.25, 0.5, 1, 2, 4, 6, 8 and 24 hours, and placed in test tubes containing 2 μL of EDTA-K2. The tube was centrifuged at 3000 g for 15 minutes to separate the plasma, and the separated plasma was stored at −60° C. Animals could be fed 2 hours after the administration.\nThe LC/MS/MS method was used to measure the content of the compound to be tested in the plasma after the intravenous and intragastric administration to the rats. The linear range of the method was 2.00-6000 nmol/L; the plasma samples were analyzed after the protein precipitation by acetonitrile treatment."}, "[2]": {"tested_on": "Mouse colon cancer MC38 cells", "experiment": "In vivo anti-tumor effect, MC38 mouse colon cancer transplantation tumor model", "conditions": "15, 25 and 50 mg/kg PO BID x 20 days", "experimental": "• Species: mouse • Strain: C57BL6 mouse • Week-age and weight: 6-7 weeks of age, 16-20 grams of body weight • Sex: Female • Supplier: Shanghai SLAC Laboratory Animal Co., Ltd.\nMouse colon cancer MC38 cells (OBiO Technology (Shanghai) Corp., Ltd.) were cultured in monolayer in vitro, and the culture conditions were DMEM culture medium (Gibco; article number: 12100) with 10% fetal bovine serum at 37° C. in 5% CO2 in an incubator. Conventional digestion treatment with 0.25% pancreatin-EDTA for passage was carried out. When the cells were in the exponential growth phase and the density was 80%-90%, the cells were harvested, counted, and inoculated. […]\nTumor diameter was measured twice a week with vernier calipers. […]\nThe tumor inhibition effect of the compound was evaluated by TGI (%) or relative tumor proliferation rate T/C (%). […] The relative tumor volume (RTV) was calculated according to the results of the tumor measurement. The calculation equation was RTV=Vt/V0, where V0 was the average tumor volume measured at the grouping and administration (i.e. D0), and Vt was the average tumor volume at the time of a certain measurement. […]\nStatistical analysis was performed using SPSS software based on the tumor volume and the tumor weight at the end of the experiment. The comparison between two groups was analyzed by t-test, and the comparison between three or more groups was analyzed by one-way ANOVA."}, "[3]": {"tested_on": "Human prostatic cancer PC-3 cells", "experiment": "In vivo pharmacodynamics, PC-3 subcutaneous xenograft tumor model", "conditions": "50 mg/kg PO BID x 21 days", "experimental": "The formulation method of the test substance was the same as in Table 6, and the animal grouping and the dosage regimen were the same as in Table 7.\n• Species: mouse • Strain: BALB/c nude mouse • Week-age and weight: 6-8 weeks of age, 18-22 grams of body weight • Sex: male • Supplier: Shanghai Sippr-BK laboratory animal Co. Ltd.\nHuman prostatic cancer PC-3 cells were cultured in monolayer in vitro, and the culture conditions were F-12K culture medium (supplier: Gibco; article number: 21127-022; manufacturing batch number: 1868870) with 10% fetal bovine serum, 100 U/mL penicillin and 100 μg/mL streptomycin. The culture was performed at 37° C. in 5% CO2. Conventional digestion treatment with pancreatin-EDTA for passage was carried out twice a week. When the cells were in the exponential growth phase, the cells were harvested, counted, and inoculated.\n0.1 mL of 10×10^6 PC-3 cells were subcutaneously inoculated into the right-back of each nude mouse. The grouping and administration was started when the average tumor volume reached 100-150 mm^3.\n3.3 Tumor measurement, experiment indices, and statistical analysis were the same as MDA-MB-231 model."}},
  "note": "Read-outs that look alike come from different tables or passages of the source.",
  "data": [
    {"compound": "Cc1sc2c(c1C)C(c1ccc(Cl)cc1)=N[C@@H](CC(=O)Nc1ccc3c(c1)COC3=O)c1nnc(C)n1-2", "note": "[Compound of formula (I)]", "values": [
      {"measurement": "Vd", "setting": "[1]; intravenous, 2 mg/kg, read-out: Apparent distribution Vdss", "value": 1.48, "unit": "L/kg"},
      {"measurement": "AUC(0-inf)", "setting": "[1]; intravenous, 2 mg/kg", "value": 2.22, "unit": "µM·h"},
      {"measurement": "AUC(0-t)", "setting": "[1]; intravenous, 2 mg/kg", "value": 2.21, "unit": "µM·h"},
      {"measurement": "clearance", "setting": "[1]; intravenous, 2 mg/kg, read-out: Clearance rate Cl", "value": 28.3, "unit": "mL/min/kg"},
      {"measurement": "half-life", "setting": "[1]; intravenous, 2 mg/kg", "value": 41, "unit": "min"},
      {"measurement": "bioavailability", "setting": "[1]; po, intragastric, 10 mg/kg", "value": 29.3, "unit": "%"},
      {"measurement": "AUC(0-inf)", "setting": "[1]; po, intragastric, 10 mg/kg", "value": 3.25, "unit": "µM·h"},
      {"measurement": "AUC(0-t)", "setting": "[1]; po, intragastric, 10 mg/kg", "value": 3.22, "unit": "µM·h"},
      {"measurement": "Cmax", "setting": "[1]; po, intragastric, 10 mg/kg, read-out: Drug concentration in blood Cmax", "value": 1160, "unit": "nM"},
      {"measurement": "half-life", "setting": "[1]; po, intragastric, 10 mg/kg", "value": 60.6, "unit": "min"},
      {"measurement": "Tmax", "setting": "[1]; po, intragastric, 10 mg/kg, read-out: Time to peak Tmax", "value": 1, "unit": "h"},
      {"measurement": "tolerance", "setting": "[2]", "value": "good tolerance"},
      {"measurement": "tolerability", "setting": "[3]", "value": "well tolerated"}
    ]}
  ]
}
